One data set concerns SK-HEP-1 cells. Nature of the data set: Protection of endothelial cells from homocysteine-induced cell death (MTS assay). The data set is classed as cell-based, human. As to conditions: for Mean (FIG. 14a, protection of SK-HEP-1 cells from Hcy in the presence of folate): folate 25 μM present, [GSCbl] = 15 μM, [CNCbl] = 15 μM, [MeCbl] = 12.5 μM, [HOCbl] = 17.5 μM, [GSH] = 100 μM; for Absorbance at 490 nm: single replicates Y1-Y6. As for the experimental part: The effect of a constant concentration of NACCbl and GSCbl to protect cells against variable concentrations of homocysteine was assessed. […] Cell viability was determined by MTS® assay. Data shown in FIG. 4 are representative of means ±SE of 6 independent samples. FIG. 4 illustrates that NACCbl (▪) and GSCbl (▴) protect endothelial cells from the effect of homocysteine. […] Cell viability was determined by MTS® assay. […] There was a decrease in protection as homocysteine concentration increased, but there was still ˜60% survival at 50 μM homocysteine.
The data was normalized (log 2 and log 10) as shown in FIGS. 16 and 17 and Tables 16 and 17, respectively, below.
In general terms: Tetrazolium dyes change colour on reduction, which living cells bring about.

Data set [1] in a line: Decomposition in PBS at 37° C. monitored by UV/Vis spectrophotometry. The data set is classed as physicochemical. Here is the method:
The decomposition of GSCbl, NACCbl, and HcyCbl in PBS at 37° C. was monitored by UV/Vis spectrophotometry.

Another data set deals with Hsp32. Nature of the data set: Hsp32 gene expression (RT-PCR, densitometry). The data set is classed as cell-based, human. As to conditions: SK-HEP-1; Sn (IX) protoporphyrin 25 μM; Quercitin 15 μM.
The next data set deals with Hsp70. Nature of the data set: Hsp70 gene expression (RT-PCR, densitometry). The note with it: SK-HEP-1; Quercitin 15 μM.
Where [2] appears, read: [Hcy] 30 μM, [NACCbl] = 12.5 μM, [NAC] = 45 μM.
[3] abbreviates: Conc. Hcy 0.000, NACCbl 30 μM, NAC 75 μM, n = 6.
Where [4] appears, read: Conc. Hcy 1.780, NACCbl 30 μM, NAC 75 μM, n = 6.
The mark [5] stands for this setting: Conc. Hcy 3.125, NACCbl 30 μM, NAC 75 μM, n = 6.
Setting [6] is: Conc. Hcy 6.250, NACCbl 30 μM, NAC 75 μM, n = 6.
The mark [7] stands for this setting: Conc. Hcy 12.500, NACCbl 30 μM, NAC 75 μM, n = 6.
Where [8] appears, read: Conc. Hcy 25.000, NACCbl 30 μM, NAC 75 μM, n = 6.
Where [9] appears, read: Conc. Hcy 50.000, NACCbl 30 μM, NAC 75 μM, n = 6.
The mark [10] stands for this setting: Conc. Hcy 100.000, NACCbl 30 μM, NAC 75 μM, n = 6.
The mark [11] stands for this setting: Conc. Hcy 200.000, NACCbl 30 μM, NAC 75 μM, n = 6.

“And” between values parts separate entries of the source, which are not always exact repeats. Equal values may be shown once.

We go through seven compounds from patent US20080113900A1, “Pharmaceutical compositions and therapeutic applications for the use of a synthetic vitamin B12 derivative, glutathionylcobalamin” (priority 2006, published 2008).

Method for Hsp70: Cells were plated into 6-, 12-, or 24-well cell culture clusters, at 2×10^3, 2×10^5, or 1×10^5 cells per well and incubated until 90% confluent. Treatments were applied as above.
Following incubation, cells were subjected to mRNA extraction followed by cDNA synthesis for each sample under test. Polymerase chain reaction cDNA templates were prepared for simplex PCR protocol. PCR products were then visualized using a UV Transilluminator and images captured using a Kodak ID gel imaging system. Densitometry and statistical analysis was then performed on each gene expression band image using PSP® v 10.0 running under Windows XP®.
mRNA extraction was performed using the Quickprep micro mRNA Purification Kit. Following incubation of cells post-treatment, the media was removed from the cells, adherent cells were re-suspended in 0.4 ml extraction buffer and 0.8 ml elution buffer at 65° C. was added.
A reaction mixture was prepared in individual microcentrifuge tubes containing 2 cDNA synthesis beads, 32 μl of the mRNA solution and 1 μl of pd(N)6. This mixture was incubated at 37° C. in a water bath for 60 minutes. After incubation, 27 μl of RNase-free DEPC treated water was added to each tube to make a total volume 60 μl. cDNA samples were prepared in duplicate. Sample 1 was used immediately in RT-PCR protocol.
Microcentrifuge tubes from puReTaq™Ready-To-Go™ PCR Beads containing one PCR bead were labeled for each sample required. Added to the PCR bead were 17 μl of RNase-free DEPC treated water, 1 μl sense primer, 1 μl anti-sense primer and 5 μl of the cDNA solution. RT-PCR conditions were as follows: Hsp70 and β-actin, pre-treatment step, 94° C. for 1 minute, followed by denaturing at 92° C. for 1 minute, annealing at 60° C. for 1 minute and extension at 72° C. for 1 minute. Total cycles, 30, post-treatment was then carried out at 72° C. for 10 minutes. For Hsp32, pre-treatment step, 95° C. for 2 minutes, followed by denaturing at 94° C. for 30 seconds, annealing at 58° C. for 1 minute and extension at 72° C. for 1 minute. […]

Regarding `N[C@@H](CCC(=O)N[C@@H](CS)C(=O)NCC(=O)O)C(=O)O` [GSH, γ-L-Glutamyl-L-cysteinyl-glycine, reference compound], the “Mean (FIG. 14a, protection of SK-HEP-1 cells from Hcy in the presence of folate)” value in the data set with SK-HEP-1 cells (setting [2]) is given as 1.409.

Turning to `C/C1=C2/[N-][C@H]([C@H](CC(N)=O)[C@@]2(C)CCC(=O)NC[C@@H](C)OP(=O)([O-])O[C@H]2[C@@H](O)[C@@H](n3cnc4cc(C)c(C)cc43)O[C@@H]2CO)[C@]2(C)N=C(/C(C)=C3N=C(/C=C4N=C1[C@@H](CCC(N)=O)C\4(C)C)[C@@H](CCC(N)=O)[C@]\3(C)CC(N)=O)[C@@H](CCC(N)=O)[C@]2(C)CC(N)=O.[Co+3].[OH-]` [HOCbl, Hydroxocobalamin, reference compound], the “Mean (FIG. 14a, protection of SK-HEP-1 cells from Hcy in the presence of folate)” value with SK-HEP-1 cells (setting [2]) turned out to be 0.9498.

In data set [1], `CC1=C2N=C(C=C3N=C(C(C)=C4[N-]C(C(CC(N)=O)C4(C)CCC(=O)NCC(C)OP(=O)([O-])OC4C(CO)OC(n5cnc6cc(C)c(C)cc65)C4O)C4(C)N=C1C(CCC(N)=O)C4(C)CC(N)=O)C(CCC(N)=O)C3(C)C)C(CCC(N)=O)C2(C)CC(N)=O.NC(CC[S-])C(=O)O.[Co+3]` [HcyCbl, D,L-homocysteinyl-cobalamin] yielded a Kobs of 0.0018 min⁻¹ and a t1/2 of 6.6 h.

In the case of `C/C1=C2/[N-][C@H]([C@H](CC(N)=O)[C@@]2(C)CCC(=O)NC[C@H](C)OP(=O)([O-])O[C@H]2[C@@H](O)[C@@H](n3cnc4cc(C)c(C)cc43)O[C@@H]2CO)[C@]2(C)N=C(/C(C)=C3N=C(/C=C4N=C1[C@@H](CCC(N)=O)C\4(C)C)[C@@H](CCC(N)=O)[C@]\3(C)CC(N)=O)[C@@H](CCC(N)=O)[C@]2(C)CC(N)=O.[CH3-].[Co+3]` [MeCbl, Methylcobalamin, reference compound], the “Mean (FIG. 14a, protection of SK-HEP-1 cells from Hcy in the presence of folate)” value in the data set with SK-HEP-1 cells (setting [2]) amounted to 1.322.

As for `CC(=O)N[C@@H](CS)C(=O)O` [NAC, N-Acetyl-L-Cysteine, reference compound], the “Normalized Data Log 2, Mean” value is 84.288 in the data set with SK-HEP-1 cells (setting [3]); 69.880 with SK-HEP-1 cells (setting [4]); 60.687 in the data set on SK-HEP-1 cells (setting [5]); 58.837 in the data set with SK-HEP-1 cells (setting [6]); 45.397 in the data set with SK-HEP-1 cells (setting [7]); 41.900 in the data set on SK-HEP-1 cells (setting [8]). Further, the figures for the “Normalized Data Log 2, Mean” value with SK-HEP-1 cells (setting [9]), with SK-HEP-1 cells (setting [10]) and in the data set with SK-HEP-1 cells (setting [11]) were 24.035, 13.738 and 11.135, respectively. The “Normalized Data Log 10, Mean” value came to 100.000 in the data set with SK-HEP-1 cells (setting [3]); 83.752 with SK-HEP-1 cells (setting [4]); 73.385 in the data set on SK-HEP-1 cells (setting [5]); 71.298 with SK-HEP-1 cells (setting [6]); 56.141 in the data set with SK-HEP-1 cells (setting [7]); 52.198 in the data set with SK-HEP-1 cells (setting [8]). Moreover, the results for the “Normalized Data Log 10, Mean” value in the data set on SK-HEP-1 cells (setting [9]), in the data set on SK-HEP-1 cells (setting [10]) and with SK-HEP-1 cells (setting [11]) were 32.051, 20.439 and 17.503, respectively. The “Absorbance at 490 nm” value with SK-HEP-1 cells (Conc. of Hcy 0.000, NACCbl 30 μM, NAC 75 μM) was 2.592 and 2.476 and 2.437 and 2.678 and 2.336 and 2.447; with SK-HEP-1 cells (Conc. of Hcy 1.780, NACCbl 30 μM, NAC 75 μM) it was 2.225 and 1.903 and 1.947 and 2.310 and 2.187 and 2.206; with SK-HEP-1 cells (Conc. of Hcy 3.725, NAC 75 μM), 1.890 and 2.003 and 1.784 and 1.946 and 1.958 and 1.801; in the data set on SK-HEP-1 cells (Conc. of Hcy 6.250, NACCbl 30 μM, NAC 75 μM), 1.678 and 1.789 and 1.897 and 1.899 and 1.933 and 1.905; with SK-HEP-1 cells (Conc. of Hcy 12.500, NACCbl 30 μM, NAC 75 μM), 1.675 and 1.232 and 1.339 and 1.590 and 1.602 and 1.622; with SK-HEP-1 cells (Conc. of Hcy 25.000, NACCbl 30 μM, NAC 75 μM), 1.345 and 1.501 and 1.632 and 1.378 and 1.226 and 1.447. Moreover, the “Absorbance at 490 nm” value with SK-HEP-1 cells (Conc. of Hcy 50.000, NACCbl 30 μM, NAC 75 μM) is 0.890 and 0.821 and 1.034 and 1.227 and 0.799 and 1.045; in the data set on SK-HEP-1 cells (Conc. of Hcy 100.000, NACCbl 30 μM, NAC 75 μM), 0.789 and 0.842 and 0.743 and 0.589 and 0.490 and 0.799; in the data set with SK-HEP-1 cells (Conc. of Hcy 200.000, NACCbl 30 μM, NAC 75 μM), 0.567 and 0.668 and 0.623 and 0.490 and 0.721 and 0.788. The “Absorbance at 490 nm, Mean” value was determined as 0.643 in the data set with SK-HEP-1 cells (SK-HEP-1, NACCbl 30 μM, NAC 75 μM, Hcy conc. 200.000, n = 6, label Hcy = Hcy alone); 2.494 with SK-HEP-1 cells (as E80, Hcy conc. 0.000); 2.130 with SK-HEP-1 cells (as E80, Hcy conc. 1.780); 1.897 in the data set with SK-HEP-1 cells (as E80, Hcy conc. 3.125); 1.850 in the data set on SK-HEP-1 cells (as E80, Hcy conc. 6.250); 1.510 in the data set with SK-HEP-1 cells (as E80, Hcy conc. 12.500). Further, the “Absorbance at 490 nm, Mean” value was 1.421 in the data set on SK-HEP-1 cells (as E80, Hcy conc. 25.000); 0.969 in the data set with SK-HEP-1 cells (as E80, Hcy conc. 50.000); 0.709 in the data set with SK-HEP-1 cells (as E80, Hcy conc. 100.000). Also, in the data set with SK-HEP-1 cells ([Hcy] 30 μM, [NAC] = 45 μM, [NACCbl] = 12.5 μM, [Folate] = 25 μM where named in the label, label Hcy/HCy = Hcy alone), the “Mean (FIG. 14, protection of SK-HEP-1 cells from Hcy)” value turned out to be 1.296. Further, the “Mean (FIG. 14a, protection of SK-HEP-1 cells from Hcy in the presence of folate)” value in the data set with SK-HEP-1 cells (setting [2]) worked out at 1.438.

Consider `O.O.O=c1c(O)c(-c2ccc(O)c(O)c2)oc2cc(O)cc(O)c12` [Quercitin, 2-(3,4-Dihydroxyphenyl)-3,5,7-trihydroxy-4H-1-benzopyran-4-one dihydrate], for which, in the data set with Hsp32, the Hsp32 gene expression entry was “does not inhibit”. In addition, the Hsp70 gene expression result with Hsp70 is “inhibits”.

Consider `C=CC1=C(C)c2cc3[n-]c(cc4[n-]c(cc5nc(cc1n2)C(C)=C5C=C)c(C)c4CCC(=O)O)c(CCC(=O)O)c3C.[Cl-].[Cl-].[Sn+4]` [Sn(IX) protoporphyrin, 8,13-Bis(vinyl)-3,7,12,17-tetramethyl-21H, 23H-porphine-2,18dipropionic acid tin(IV) dichloride], for which the Hsp32 gene expression result with Hsp32 was “inhibited”.
